Measurements published in patent US5053070A, “Pyrimidine derivatives, preparation processes thereof, herbicide containing the same, and herbicidal compositions containing the same along with other active ingredient” (Mitsui Toatsu Chemicals, Incorporated, priority 1988, dated 1991).
Values after ≈ are worked out from the molar mass of the structure shown.

Key:
peanut [1] = assay: Upland soil application test (Test 2), crop injury; format: in vivo; details: 30 g ai/a, soil spray before emergence, 30 days later
Experimental: (§1) Resin-made 1/2500-are pots were filled with the soil of an upland field. After they were fertilized, soybean, peanut and cotton were seeded and 2-3 cm soil covering was applied. Seeds of redroot pigweed, common lambsquarters, barnyardgrass, green foxtail, large crabgrass, foxtail meadow and johnsongrass had been uniformly mixed with the soil. They were allowed to germinate in a green house. One day later (before emergence of weeds), a wettable powder prepared from a predetermined amount of each test compound in a similar manner to the method described in Formulation Example 1 was diluted with water and then sprayed evenly at an application rate equal to 10 l per are onto the surface of the soil by means of a pressure-operated ULV (ultra low volume) sprayer. Influence to the crops and weeds were observed 30 days later. The results are shown in Table 3, in which the degree of damages of each test plant and the degree of injury to each crop were determined by comparing the air-dried weights of the test plant and crop with those of the corresponding plant and crop in untreated pots and are shown in accordance with the following standard: […]

cotton [2] = assay: Upland soil application test (Test 2), crop injury; format: in vivo; details: 30 g ai/a, soil spray before emergence, 30 days later
Experimental: as §1

soybean [3] = assay: Upland soil application test (Test 2), crop injury; format: in vivo; details: 30 g ai/a, soil spray before emergence, 30 days later
Experimental: as §1

barnyardgrass [4] = assay: Treatment of soil under submerged condition, post-emergence (Test 5); format: in vivo; details: 30 g ai/a granule, post-emergence (barnyardgrass two-leaf stage), 30 days later
Experimental: (§2) 1/5000-are Wagner pots were filled with soil. Seeds or tubers of barnyardgrass, Monochoria vaginalis, bulrush, Sagittaria pygmaea, Cyperus serroylnus and Eleocharis kuroguwai were seeded or planted under submerged condition. Two pairs of rice seedlings (2-3 leaf stage), which had been reared in advance, were transplanted to each pot and were allowed to grow in a green house. Each pair consisted of two rice seedlings. When the barnyardgrass grew to two-leaf stage, each pot was treated with a granule which had been prepared by processing a predetermined amount of the test composition in accordance with a similar method to the method described in Formulation Example 9. The state of emergence of weeds and the state of injury of rice were observed 30 days later.
(§3) In the table, the degrees of damages of the test plants and the degrees of injury of the rice are shown in a similar manner to Example 2.

Sagittaria pygmaea = assay: as above; format: in vivo; details: 30 g ai/a granule, 30 days later
Experimental: as §2, §3

bulrush = assay: as above; format: in vivo; details: 30 g ai/a granule, 30 days later
Experimental: as §2, §3

[5] = test system: ALS (acetolactate syntase); assay: ALS enzyme assay (Test 1); format: biochemical, pea; details: 1,000 ppm (0.5 mg/0.5 ml)
Experimental: To determine the selectivity in enzyme level between crops and weeds, and ALS enzyme assay was conducted using pea as a representative of broadleaf crops and barnyardgrass as a representative of narrowleaf weeds.
After seeds of pea and barnyardgrass were allowed to germinate at 25° C. for 8-14 days in a dark place, partially-purified suspensions (Suspensions A) of acetolactate syntase were separately obtained from seedlings in accordance with the method described in the literature, Plant Physiology, 75, 827-831.
In a test tube, 0.5 mg of one of test compounds was weighed, followed by the addition of 0.15 ml of a 20 mM K2 HPO4 solution and 0.25 ml of a reaction substrate medium which consisted of 40 mM of K2 HPO4, 40 mM of sodium pyruvate, 1 mM of TPP, 1 mM of MgCl2 and 20 μM of FAD so that 0.4 ml of a reaction solution (Solution B) was prepared. Added to 0.4 ml of Solution B was 0.1 ml of suspension A. After the resultant mixture was shaken for 1 hour in a thermostat water bath controlled at 30° C., 50 μl of 6N sulfuric acid were added to terminate the reaction.
Next, the reaction-terminated liquid mixture was transferred into a thermostat water bath controlled at 60° C. and was heated for 15 minutes. Thereafter, 0.5 ml of a 0.5% creatine solution and 0.5 ml of a 5% alkaline α-naphthol solution were added, and the resultant mixture was maintained at 60° C. for 15 minutes. As a result, the test solution developed a pink-red color. After the above operation, the absorbance of the test solution at 525 nm was measured by a spectrophotometer (Absorbance 1 of Test Compound).
On the other hand, the absorbance (Absorbance 2 of Blank) of a solution obtained by subjecting a portion of Solution B, said portion being free of the test compound, to the above operation and the absorbance (Absorbance 3 of sulfuric acid terminated) of another solution obtained by subjecting another portion of Solution B, said portion containing 50 μl of 6N sulfuric acid as a test compound, were measured at the same time. Based on the values of the respective measurements, the enzyme assay at 1,000 ppm (0.5 mg/0.5 ml) of each compound was determined. [formula]

barnyardgrass [6] = assay: Upland soil application test (Test 2); format: in vivo; details: 30 g ai/a, soil spray before emergence, 30 days later
Experimental: as §1

common lambsquarters = assay: Upland soil application test (Test 2); format: in vivo; details: 30 g ai/a, soil spray before emergence, 30 days later
Experimental: as §1

large crabgrass = assay: Upland soil application test (Test 2); format: in vivo; details: 30 g ai/a, soil spray before emergence, 30 days later
Experimental: as §1

redroot pigweed = assay: Upland soil application test (Test 2); format: in vivo; details: 30 g ai/a, soil spray before emergence, 30 days later
Experimental: as §1

rice = assay: Treatment of soil under submerged condition, post-emergence (Test 5), injury; format: in vivo; details: 30 g ai/a granule, 30 days later
Experimental: as §2, §3

narrowleaf waterplantain = assay: Petri dish test (Test 6); format: in vivo; details: 336 h; seeds on filter paper, 25° C., 14 days; read-out: I80 (ppm)
Experimental: A filter paper was placed in each glass-made Petri dish having a diameter of 9 cm. A compound dissolved in acetone was added in a predetermined amount. The filter paper was then dried in air to remove acetone. Seeds of narrowleaf waterplantain were placed on the filter paper and 10 ml of water were poured into the Petri dish. The seeds were allowed to grow at 25° C. in a bright room. Fourteen days later, the state of growth of narrowleaf water-plantain was observed.
In the table, the degree of damages of the test plant was determined by comparing the state of growth of the plant with that of the plant in an untreated group and is shown in accordance with the following standard: […]

peanut [7] = assay: Upland foliar application test (Test 3), crop injury; format: in vivo; details: 30 g ai/a, foliar spray at 2-3 leaves, 30th day
Experimental: (§4) Resin-made 1/10000-are pots were filled with the soil of an upland field. Redroot pigweed, common lambsquarters, foxtail meadow, johnsongrass, barnyardgrass, green foxtail, large crabgrass, soybean, peanut and cotton were separately seeded and were allowed to germinate in a green house. When each plant grew to the stage of 2-3 leaves, an emulsion formulated from a predetermined amount of each test compound in a similar manner to the method described in Formulation Example 11 was diluted with water to a predetermined dilution rate and then sprayed at an application rate equal to 5 l per are onto the foliage of each plant by means of a pressure-operated ULV (ultra low volume) sprayer. Influence to the crops and weeds were observed on the 30th day after the spray of the herbicides. The results are shown in Table 4 in which the degree of damages of each test plant and the degree of injury to each crop are shown in a similar manner to Test 2.

cotton [8] = assay: as above; format: in vivo; details: 30 g ai/a, foliar spray at 2-3 leaves, 30th day
Experimental: as §4

soybean [9] = assay: as above; format: in vivo; details: 30 g ai/a, foliar spray at 2-3 leaves, 30th day
Experimental: as §4

Compound | Injury Peanut (peanut [1]) | Injury Cotton (cotton [2]) | Injury Soybean (soybean [3]) | Herbicidal effects Barnyardgrass (barnyardgrass [4]) | Herbicidal effects Sagittaria Pygmaea (Sagittaria pygmaea) | Herbicidal effects Bulrush (bulrush) | Inhibitory activity (%) Pea [5] [%] | Herbicidal effects Barnyardgrass (barnyardgrass [6]) | Herbicidal effects Common lambsquarters (common lambsquarters) | Herbicidal effects Large crabgrass (large crabgrass) | Herbicidal effects Redroot pigweed (redroot pigweed) | Injury Rice (rice) | IC80 (narrowleaf waterplantain) [µg/mL] | Injury Peanut (peanut [7]) | Injury Cotton (cotton [8]) | Injury Soybean (soybean [9])
C=CCON=Cc1ccccc1Oc1nc(OC)cc(OC)n1 [Compound No. 4] | 0 (91-100 (No damages)) | 0 (91-100 (No damages)) | 0 (91-100 (No damages)) | 5 (0-5 (Death)) | 3 (11-40 (Medium damages)) | 4 (6-10 (Severe damages)) | 0 | 5 (0-5 (Death)) | 3 (11-40 (Medium damages)) | 4 (6-10 (Severe damages)) | 4 (6-10 (Severe damages)) | 0 (91-100 (No damages)) | 100 (≈ 317 µM) | 0 (91-100 (No damages)) | 0 (91-100 (No damages)) | 0 (91-100 (No damages))
COc1cc(OC)nc(Oc2ccccc2C=NOCC=C(C)C)n1 [Compound No. 7] | 0 (91-100 (No damages)) | 0 (91-100 (No damages)) | 0 (91-100 (No damages)) | 5 (0-5 (Death)) | 3 (11-40 (Medium damages)) | 5 (0-5 (Death)) | 0 | 5 (0-5 (Death)) | 4 (6-10 (Severe damages)) | 5 (0-5 (Death)) | 4 (6-10 (Severe damages)) | 0 (91-100 (No damages)) | 17 (≈ 49.5 µM) | 0 (91-100 (No damages)) | 0 (91-100 (No damages)) | 0 (91-100 (No damages))
COc1cc(OC)nc(Oc2ccccc2C=NOCC=Cc2ccccc2)n1 [Compound No. 9] | 0 (91-100 (No damages)) | 0 (91-100 (No damages)) | 0 (91-100 (No damages)) | 5 (0-5 (Death)) | 5 (0-5 (Death)) | 5 (0-5 (Death)) | 11 | 5 (0-5 (Death)) | 4 (6-10 (Severe damages)) | 5 (0-5 (Death)) | 5 (0-5 (Death)) | 0 (91-100 (No damages)) | 2 (≈ 5.11 µM) | 0 (91-100 (No damages)) | 0 (91-100 (No damages)) | 0 (91-100 (No damages))
C#CCON=Cc1ccccc1Oc1nc(OC)cc(OC)n1 [Compound No. 13, 0-(2-propynyl)-2-(4,6-dimethoxy-2-pyrimidinyloxy)benzaldoxime] | 0 (91-100 (No damages)) | 0 (91-100 (No damages)) | 0 (91-100 (No damages)) | 5 (0-5 (Death)) | 3 (11-40 (Medium damages)) | 4 (6-10 (Severe damages)) | 0 | 5 (0-5 (Death)) | 4 (6-10 (Severe damages)) | 5 (0-5 (Death)) | 5 (0-5 (Death)) | 0 (91-100 (No damages)) | 5 (≈ 16 µM) | 0 (91-100 (No damages)) | 0 (91-100 (No damages)) | 0 (91-100 (No damages))
